Test system: eosinophils in the esophagus
Assay: Mouse model of eosinophilic esophagitis (epicutaneous Aspergillus fumigatus sensitization, intranasal challenge): eosinophil count in H&E stained esophagus
Format: in vivo, Balb/c mice
Details: compared to the positive control (3X ASP sensitized, 1x ASP challenged, untreated); test substance in the food; harvest on day 32
Method: It is the object of the invention to provide new and alternative solutions to the problem of preventing or treating eosinophilic esophagitis. […] The evaluation of ingredients which are useful in the treatment or prevention of eosinophilic esophagitis is performed using an established mouse model for eosinophilic esophagitis (Akei et al., “Epicutaneous antigen exposure primes for experimental eosinophilic esophagitis in mice”, Gastroenterology, 2005 September; 129(3):985-94). This model uses various parameters including the number of eosinophils in the esophagus as indicators for the effect on eosinophilic esophagitis. Accordingly, is ideally suited for the testing of compounds that are candidates for the treatment or prevention of eosinophilic esophagitis. FIG. 2. Eosinophil number in the esophagus. The esophagea were harvested and tissue histology was performed. Eosinophils were identified and counted on Hematoxylin & Eosin (H&E) stained slides per high powered field (hpf). The maximal number of eosinophils found in one hpf field in the whole esophagus is shown. The maximal number of eosinophils present in the esophagal epithelium is represented. […] Esophagi were harvest and stained with hematoxylin eosin and eosinophils were counted (maximum/high power field, see FIG. 2).

`Oc1cc(O)c2c(c1)O[C@H](c1ccc(O)c(O)c1)[C@H](O)C2` [epicatechin] was tested, and the “reduction of eosinophils in the esophagus (maximum number per high power field)” value was “no effect”.

Source: US10350252B2, “Cocoa polyphenols and their use in the treatment or prevention of eosinophilic esophagitis” (NESTEC S.A., priority 2013, dated 2019)
